*1 amine or outer side, *2 acyl side, *3 side chain or, on linkers, in order; H or OH if unused. Where a SMILES comes first, the peptide text is derived from it. [ ]: non-standard residue; d: D form. X1 = N=C(N)N[C@@H](CCCCN[*:1])C(=O)[*:2]; βAla = NCCC(=O)O
Columns and labels:
[1] = system: West Nile virus; assay: Inhibition of West Nile virus EG101 NS2BH-NS3 protease expressed in Escherichia coli Top10 F' cells using Boc-Gly-Lys-Arg-AMC as substrate preincubated with compound for 15 mins followed by substrate addition and measured after 15 mins by fluorescence based assay; conditions: time 30.0 min
[2] = biological target: Prothrombin (Homo sapiens, UniProt P00734); assay: Inhibition of thrombin (unknown origin) using CH3SO2-dCha-Gly-Arg-pNA as substrate by […] plate reader analysis
[3] = biological target: Coagulation factor X (Homo sapiens, UniProt P00742); assay: Inhibition of factor Xa (unknown origin) using CH3OCO-dCha-Gly-Arg-pNA as substrate by […] plate reader analysis
Coagulation factor X, sequence (P00742 41-179 limits assumed): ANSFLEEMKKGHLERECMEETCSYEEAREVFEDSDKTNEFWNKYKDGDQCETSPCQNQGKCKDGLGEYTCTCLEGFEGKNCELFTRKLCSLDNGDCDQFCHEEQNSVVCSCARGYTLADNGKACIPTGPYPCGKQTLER
Coagulation factor X, sequence (P00742 235-488 limits assumed): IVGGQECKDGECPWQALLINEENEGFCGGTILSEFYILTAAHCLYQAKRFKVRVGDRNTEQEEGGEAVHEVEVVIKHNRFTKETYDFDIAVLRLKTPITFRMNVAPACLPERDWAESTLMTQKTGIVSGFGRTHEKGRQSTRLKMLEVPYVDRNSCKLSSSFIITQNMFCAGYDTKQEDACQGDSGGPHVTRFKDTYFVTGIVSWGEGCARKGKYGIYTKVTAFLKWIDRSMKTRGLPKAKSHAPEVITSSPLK

[4] = biological target: Genome polyprotein (West Nile virus) (UniProt P06935); assay: Inhibition of West Nile virus NS2B-NS3 protease using Bz-nKRR-AMC as substrate assessed as inhibition constant preincubated for 30 mins followed by substrate addition and measured after 60 mins by fluorescence based microplate reader analysis; conditions: time 90.0 min
Target sequence in this assay (P06935 whole entry): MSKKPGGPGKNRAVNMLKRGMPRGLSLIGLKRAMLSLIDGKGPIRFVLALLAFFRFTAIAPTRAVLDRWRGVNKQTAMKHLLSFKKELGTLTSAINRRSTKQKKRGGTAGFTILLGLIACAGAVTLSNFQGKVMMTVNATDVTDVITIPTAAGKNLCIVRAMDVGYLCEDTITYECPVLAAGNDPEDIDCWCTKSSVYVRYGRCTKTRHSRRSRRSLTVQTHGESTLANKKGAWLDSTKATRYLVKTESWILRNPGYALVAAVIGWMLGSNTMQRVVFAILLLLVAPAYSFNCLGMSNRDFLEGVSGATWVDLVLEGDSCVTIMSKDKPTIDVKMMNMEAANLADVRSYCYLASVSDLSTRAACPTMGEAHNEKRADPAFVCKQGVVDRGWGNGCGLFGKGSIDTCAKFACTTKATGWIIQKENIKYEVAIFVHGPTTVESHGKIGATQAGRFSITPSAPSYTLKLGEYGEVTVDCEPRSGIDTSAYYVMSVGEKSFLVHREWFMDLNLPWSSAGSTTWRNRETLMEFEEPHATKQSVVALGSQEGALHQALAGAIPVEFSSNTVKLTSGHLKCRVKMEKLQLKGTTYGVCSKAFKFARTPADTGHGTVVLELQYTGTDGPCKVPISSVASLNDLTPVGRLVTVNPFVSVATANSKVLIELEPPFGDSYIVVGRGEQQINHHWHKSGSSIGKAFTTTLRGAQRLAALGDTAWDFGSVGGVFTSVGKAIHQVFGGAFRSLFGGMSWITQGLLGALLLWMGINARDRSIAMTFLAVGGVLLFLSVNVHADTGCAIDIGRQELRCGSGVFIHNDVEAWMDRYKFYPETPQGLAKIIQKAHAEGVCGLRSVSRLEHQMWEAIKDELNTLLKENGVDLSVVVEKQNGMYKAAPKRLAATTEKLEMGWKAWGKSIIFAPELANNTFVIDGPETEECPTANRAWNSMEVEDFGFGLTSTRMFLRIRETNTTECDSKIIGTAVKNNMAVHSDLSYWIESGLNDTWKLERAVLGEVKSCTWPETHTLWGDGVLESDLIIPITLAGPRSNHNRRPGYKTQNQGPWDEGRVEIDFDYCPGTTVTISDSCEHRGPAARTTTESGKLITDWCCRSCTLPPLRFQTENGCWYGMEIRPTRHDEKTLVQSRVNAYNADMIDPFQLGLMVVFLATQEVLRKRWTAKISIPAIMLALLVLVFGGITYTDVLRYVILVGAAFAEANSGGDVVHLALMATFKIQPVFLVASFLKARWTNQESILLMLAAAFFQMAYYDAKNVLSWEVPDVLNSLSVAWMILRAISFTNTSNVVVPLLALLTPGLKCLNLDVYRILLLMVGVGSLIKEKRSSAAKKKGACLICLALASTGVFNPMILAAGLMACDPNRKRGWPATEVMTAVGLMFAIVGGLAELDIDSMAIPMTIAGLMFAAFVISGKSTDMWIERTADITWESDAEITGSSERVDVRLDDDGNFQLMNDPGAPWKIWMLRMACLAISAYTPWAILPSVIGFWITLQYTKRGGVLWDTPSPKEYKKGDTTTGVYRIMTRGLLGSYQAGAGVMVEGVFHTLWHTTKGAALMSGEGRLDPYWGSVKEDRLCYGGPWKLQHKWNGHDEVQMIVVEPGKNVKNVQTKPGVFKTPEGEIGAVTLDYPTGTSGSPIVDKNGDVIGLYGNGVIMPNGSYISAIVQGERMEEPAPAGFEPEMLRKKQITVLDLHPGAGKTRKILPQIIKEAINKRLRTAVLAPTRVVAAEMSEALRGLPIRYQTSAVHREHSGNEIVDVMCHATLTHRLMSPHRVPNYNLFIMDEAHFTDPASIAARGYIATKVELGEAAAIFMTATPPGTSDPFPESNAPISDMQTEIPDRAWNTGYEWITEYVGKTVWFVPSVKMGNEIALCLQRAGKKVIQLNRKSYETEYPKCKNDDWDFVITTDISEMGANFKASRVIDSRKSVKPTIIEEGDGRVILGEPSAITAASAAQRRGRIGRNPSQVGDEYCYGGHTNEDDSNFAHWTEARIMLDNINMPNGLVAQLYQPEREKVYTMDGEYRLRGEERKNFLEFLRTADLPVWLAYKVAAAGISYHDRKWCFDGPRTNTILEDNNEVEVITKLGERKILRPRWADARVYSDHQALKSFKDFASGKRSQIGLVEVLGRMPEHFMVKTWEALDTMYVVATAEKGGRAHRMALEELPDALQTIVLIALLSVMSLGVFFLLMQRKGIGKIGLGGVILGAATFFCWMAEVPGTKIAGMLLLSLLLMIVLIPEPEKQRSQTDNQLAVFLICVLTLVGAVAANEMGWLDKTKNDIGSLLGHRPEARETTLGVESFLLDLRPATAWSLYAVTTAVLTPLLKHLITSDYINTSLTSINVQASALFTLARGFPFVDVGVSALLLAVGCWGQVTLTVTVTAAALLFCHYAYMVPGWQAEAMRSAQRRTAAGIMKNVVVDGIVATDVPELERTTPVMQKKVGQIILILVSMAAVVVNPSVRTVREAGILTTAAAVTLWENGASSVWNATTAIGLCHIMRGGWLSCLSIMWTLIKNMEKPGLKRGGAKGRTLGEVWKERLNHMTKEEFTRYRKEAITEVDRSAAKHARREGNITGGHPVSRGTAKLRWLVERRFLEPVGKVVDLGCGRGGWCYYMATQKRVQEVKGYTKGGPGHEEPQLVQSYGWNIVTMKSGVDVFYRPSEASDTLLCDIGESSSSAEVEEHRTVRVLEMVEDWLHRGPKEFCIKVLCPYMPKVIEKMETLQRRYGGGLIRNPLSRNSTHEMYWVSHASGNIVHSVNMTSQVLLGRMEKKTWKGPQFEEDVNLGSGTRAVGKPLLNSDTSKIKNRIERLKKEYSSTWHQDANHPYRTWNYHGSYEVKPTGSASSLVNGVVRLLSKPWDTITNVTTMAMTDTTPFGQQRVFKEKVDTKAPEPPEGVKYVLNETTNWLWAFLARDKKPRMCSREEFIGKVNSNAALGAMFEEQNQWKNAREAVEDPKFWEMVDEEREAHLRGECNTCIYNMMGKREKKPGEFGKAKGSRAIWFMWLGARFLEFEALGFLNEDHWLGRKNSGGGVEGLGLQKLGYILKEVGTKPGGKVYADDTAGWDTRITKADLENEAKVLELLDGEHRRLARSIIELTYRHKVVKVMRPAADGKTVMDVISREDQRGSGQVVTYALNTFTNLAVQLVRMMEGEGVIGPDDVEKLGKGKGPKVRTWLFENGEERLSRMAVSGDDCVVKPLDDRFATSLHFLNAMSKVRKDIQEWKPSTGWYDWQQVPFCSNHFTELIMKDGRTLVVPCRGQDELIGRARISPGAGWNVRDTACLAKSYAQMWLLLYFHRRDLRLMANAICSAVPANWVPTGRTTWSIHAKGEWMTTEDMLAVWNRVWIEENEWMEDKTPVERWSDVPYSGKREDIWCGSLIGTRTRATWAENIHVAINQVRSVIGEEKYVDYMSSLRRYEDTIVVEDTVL

[5] = Cytotoxicity against human A549 cells incubated for 42 hrs by MTT assay; format: toxicity, cell-based
[6] = system: West Nile virus; assay: Antiviral activity against West Nile virus infected in human A549 cells measured after 42 hrs by plaque reduction assay; format: functional, organism-based
[7] = system: Zika virus; assay: Antiviral activity against Zika virus Puerto Rico strain PRVABC59 infected in human A549 cells measured after 42 hrs incubation under dark conditions by plaque reduction assay; format: functional, organism-based; conditions: Puerto Rico strain PRVABC59, A549, 42 h
[8] = system: dengue virus type 2; assay: Antiviral activity against DENV2 infected in human A549 cells measured after 42 hrs by plaque reduction assay; format: functional, organism-based; conditions: A549, 42 h
[9] = Cytotoxicity against golden hamster BHK-21 cells incubated for 24 hrs by CCK-8 assay; format: toxicity, cell-based, Mesocricetus auratus
[10] = system: dengue virus type 2; assay: Antiviral activity against DENV2 infected in golden hamster BHK-21 cells preincubated with virus for 18 hrs followed by compound addition and measured after 24 hrs by plaque reduction assay; format: functional, organism-based
[11] = Inhibition of Dengue virus 4 NS2B-NS3 protease using Benzoyl-Nle-Lys-Arg-Arg-AMC as substrate preincubated for 1 hrs followed by substrate addition and measured after 10 mins by fluorescence based plate reader analysis; set-up: species or system dengue virus type 4
[12] = system: West Nile virus; assay: Antiviral activity against West Nile virus New York 99 infected in golden hamster BHK-21 cells co-expressing renilla luciferase assessed as inhibition of viral […] replication incubated for 24 hrs; format: functional, organism-based; conditions: New York 99, BHK-21, 24 h
[13] = Cytotoxicity against golden hamster BHK-21 cells incubated for 24 hrs by ATP-lite assay; format: toxicity, cell-based, Mesocricetus auratus
[14] = system: dengue virus type 1; assay: Antiviral activity against DENV1 infected in African green monkey Vero cells assessed as inhibition of viral infection by virucidal assay; format: functional, organism-based
[15] = system: dengue virus type 3; assay: Antiviral activity against DENV3 infected in African green monkey Vero cells assessed as inhibition of viral infection by virucidal assay; format: functional, organism-based
[16] = system: dengue virus type 4; assay: Antiviral activity against DENV4 infected in African green monkey Vero cells assessed as inhibition of viral infection by virucidal assay; format: functional, organism-based
[17] = Cytotoxicity against African green monkey Vero cells incubated for 24 hrs by MTT assay; format: toxicity, cell-based; conditions: chlorocebus sabaeus
[18] = system: dengue virus type 2; assay: Antiviral activity against DENV2 infected in African green monkey Vero cells assessed as inhibition of viral infection by virucidal assay; format: functional, organism-based
[19] = Inhibition of DENV3 NS2B (50 to 95 residues)-NS3 (1 to 182 residues) protease expressed in Escherichia coli BL21-rosetta cells using Bz-Nle-Lys-Lys-Arg-AMC as substrate preincubated for 10 mins followed by substrate addition and measured every 30 secs; set-up: species or system dengue virus type 3
[20] = system: dengue virus type 2; assay: Antiviral activity against DENV2 New Guinea C infected in human A549 cells measured after 48 hrs by plaque reduction assay; format: functional, organism-based; conditions: A549, 48 h
[21] = system: West Nile virus; assay: Antiviral activity against West Nile virus NY003356V2 infected in human A549 cells measured after 48 hrs by plaque reduction assay; format: functional, organism-based; conditions: NY003356V2, A549, 48 h
[22] = system: Zika virus; assay: Antiviral activity against Zika virus Puerto Rico strain PRVABC59 infected in human A549 cells measured after 48 hrs by plaque reduction assay; format: functional, organism-based; conditions: Puerto Rico strain PRVABC59, A549, 48 h
[23] = biological target: Genome polyprotein (West Nile virus) (UniProt P06935); assay: Uncompetitive inhibition of recombinant West Nile virus NS2B-NS3 protease using Pyr-RTKR-AMC as substrate assessed as inhibition constant preincubated for 15 mins followed by substrate addition
Target sequence in this assay (P06935 1371-1501 limits assumed): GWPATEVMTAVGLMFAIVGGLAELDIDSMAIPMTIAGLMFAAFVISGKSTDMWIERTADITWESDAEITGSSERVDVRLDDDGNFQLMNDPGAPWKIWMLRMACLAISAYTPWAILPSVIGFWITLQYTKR
Target sequence in this assay (P06935 1502-2120 limits assumed): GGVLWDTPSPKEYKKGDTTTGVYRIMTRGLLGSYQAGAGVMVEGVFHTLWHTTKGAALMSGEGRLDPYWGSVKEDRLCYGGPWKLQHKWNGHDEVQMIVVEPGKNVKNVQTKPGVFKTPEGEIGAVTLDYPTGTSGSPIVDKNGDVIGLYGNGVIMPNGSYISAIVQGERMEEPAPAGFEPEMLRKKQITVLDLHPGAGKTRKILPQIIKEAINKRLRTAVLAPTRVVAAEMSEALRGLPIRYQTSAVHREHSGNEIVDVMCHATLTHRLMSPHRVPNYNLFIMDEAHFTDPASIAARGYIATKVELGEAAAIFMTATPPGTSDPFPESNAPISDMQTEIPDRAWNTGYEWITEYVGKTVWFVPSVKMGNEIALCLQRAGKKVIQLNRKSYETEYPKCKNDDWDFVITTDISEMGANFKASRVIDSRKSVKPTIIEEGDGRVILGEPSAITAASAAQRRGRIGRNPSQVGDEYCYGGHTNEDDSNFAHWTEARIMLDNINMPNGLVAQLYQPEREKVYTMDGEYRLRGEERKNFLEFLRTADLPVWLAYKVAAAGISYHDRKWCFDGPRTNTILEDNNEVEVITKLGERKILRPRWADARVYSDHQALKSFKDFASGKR

[24] = system: West Nile virus; assay: Antiviral activity against West Nile virus NY99 infected in human A549 cells measured after 48 hrs by plaque reduction assay; format: functional, organism-based; conditions: NY99, A549, 48 h

## Oc1ccccc1C(Nc1nccs1)c1ccc2cccnc2c1O (stereo not drawn)
[1]
  K: 3.4 µM

## N=C(N)N[C@H]1CC[C@H](CNC(=O)[C@H](CCCCN)NC(=O)[C@H](CCCCN)NC(=O)Cc2ccc(Cl)c(Cl)c2)CC1
[2]
  Ki: > 500 µM
[3]
  Ki: > 200 µM

## N=C(N)Nc1ccc(OC(=O)c2ccc(NC(=N)N)cc2)cc1
[4]
  K: 4.6 µM

## Oc1cccc(-c2c3nc(c(-c4cccc(O)c4)c4ccc([nH]4)c(-c4cccc(O)c4)c4nc(c(-c5cccc(O)c5)c5ccc2[nH]5)CC4)C=C3)c1 [TEMOPORFIN]
[5]
  CC50 at 42 h: 40.7 µM
[6]; A549, 42 h
  EC50: 0.01 µM
[6]; A549, time 42 hrs
  EC90: 0.03 µM
[7]
  EC50: 0.022 µM
[8]
  EC50: 0.02 µM

## Cc1ccc(C(=O)c2cc(O)c(O)c([N+](=O)[O-])c2)cc1 [TOLCAPONE]
[9]
  CC50 at 24 h: 29.2 µM
[10]
  EC50: 2 µM

## N=C(N)N[C@H]1CCCCNC(=O)[C@H](CCCCN)NC(=O)[C@H](CCCCN)NC(=O)CCNC(=O)CNC(=O)CNC1=O (cyclo(GG[βAla]KK[X1]))
[11]
  Ki: 0.16 µM

## Clc1cc(OCc2nnc3sc(Cc4ccccc4)nn23)c(Cl)cc1OCc1nnc2sc(Cc3ccccc3)nn12
[12]
  EC50: 17 µM
[13]
  CC50 at 24 h: > 200 µM

## C=CCc1ccc(OCc2cn(Cc3ccccc3Br)nn2)c(OC)c1
[14]
  EC50: 14 µM
[15]
  EC50: 14 µM
[16]
  EC50: 14 µM
[17]
  CC50 at 24 h: > 300 µM
[18]
  EC50: 14 µM

## NCc1ccc(-c2ncc(OCC3CCNCC3)nc2-c2ccc(-c3cn[nH]c3)cc2)cc1
[19]
  IC50: 0.2 µM

## O=C1C=C/C(=N\Nc2ccc([N+](=O)[O-])cc2Cl)C=C1C(=O)Nc1cccc(Cl)c1
[20]
  EC50: 0.81 µM
[5]
  CC50 at 42 h: 48.8 µM
[21]
  EC50: 1.27 µM
[22]
  EC50: 1 µM

## CCc1ccc(NC(=O)CSc2nc3ccc(NC(=O)CSc4nnc(-c5ccccc5)[nH]4)cc3s2)cc1
[23]
  K: 2.8 µM

## O=C1OC2(c3ccccc31)c1cc(I)c(O)c(I)c1Oc1c2cc(I)c(O)c1I [ERYTHROSINE]
[20]
  EC50: 1.2 µM
[22]
  EC50: 0.62 µM
[24]
  EC50: 0.66 µM

Reference: ChEMBL document CHEMBL5223065, “Targeting the protease of West Nile virus” (RSC Med Chem, 2021)
